Assay results published in ChEMBL document CHEMBL1151523, “Synthesis of ()-6-(3-aminopropyloxy)methyl-4-demethoxy-6, 7-dideoxy-daunomycinone, a new dna intercalator related to anthracyclines” (Bioorg Med Chem Lett, 1995).

How the values were obtained:
Type in all cases: nucleic-acid assay, Bos taurus
Nucleic Acid [1] = experiment: Binding affinity to Calf thymus DNA type XV; value ranges from 4E6 - 6E6 M-1
Nucleic Acid [2] = experiment: Binding affinity to Calf thymus DNA type XV; value ranges from 1E4 - 3E4 M-1
Nucleic Acid [3] = experiment: Binding affinity to Calf thymus DNA type XV; value ranges from 2E6 - 4E6 M-1
Nucleic Acid [4] = experiment: Binding affinity to Calf thymus DNA type XV

COc1cccc2c1C(=O)c1c(O)c3c(c(O)c1C2=O)C[C@@](O)(C(C)=O)C[C@@H]3O[C@H]1C[C@H](N)[C@H](O)[C@H](C)O1.Cl [DAUNORUBICIN HYDROCHLORIDE]
Ka (Nucleic Acid [1]): 4000000 M⁻¹

COc1cccc2c1C(=O)c1c(O)c3c(c(O)c1C2=O)C[C@@](O)(C(C)=O)C[C@@H]3O [DAUNOMYCINONE]
Ka (Nucleic Acid [2]): 10000 M⁻¹

COc1cccc2c1C(=O)c1c(O)c3c(c(O)c1C2=O)C[C@@](O)(C(=O)CO)C[C@@H]3O[C@H]1C[C@H](N)[C@H](O)[C@H](C)O1 [DOXORUBICIN]
Ka (Nucleic Acid [3]): 2000000 M⁻¹

CC(=O)[C@@]1(O)CCc2c(c(O)c3c(c2COCCCN)C(=O)c2ccccc2C3=O)C1.Cl
Ka (Nucleic Acid [4]): 61000 M⁻¹
